Experimental data published in a melting point compilation (Tetko et al.; mined from patent text by program, amines drawn as free bases though some values may be those of a salt).

Compound	melting point [°C]
CC(C)c1ccc2c(c1)CCC1C(C)(C(=O)O)CCCC21C (configuration not stated)	168 to 170
O=C1CCN(C(=O)c2cc(C(F)(F)F)cc(C(F)(F)F)c2)C(Cc2ccccc2)C1 (configuration not stated)	102
O=[N+]([O-])c1ccc(-c2cnc(Nc3ccc(Oc4ccccc4)cc3)s2)cc1	191 to 196
c1cn(CCCc2ccc(OCc3coc(C4CCCCC4)n3)cc2)cn1	46 to 47
CC(O)c1ccc(-c2ccc3c(c2)CC(C(=O)O)O3)cc1 (configuration not stated)	155 to 157
CCOC(=O)c1nc(N)sc1C(C)=O	162 to 164
CC(C)(C)n1cc(CN(Cc2cn(CCO)nn2)Cc2cn(C(C)(C)C)nn2)nn1	82 to 83
C=C(C)C(=O)OCCCCCCCCCCCOC(=O)c1cc(OC(=O)c2ccc(/C=C/C(=O)OC)cc2)ccc1O	51
O=C(NN=Cc1ccnc2ccccc12)C1CCC1	138
Cc1cc(C(=O)NC2CC2)ccc1N1CCN(Cc2cnc3c(c2)NC(=O)[C@@H]2CCCN32)CC1	227 to 234
CCCCCCCCCCCCCCC(=O)Nc1ccn(C2OC(CO)C(O)C2O)c(=O)n1 (configuration not stated)	142 to 145
CCn1ncc2c(NCc3ccccc3)c3ccccc3nc21	130 to 132
CC(=O)Nc1ccc(NCCNS(C)(=O)=O)cc1	130
COc1ccc(C(C#N)N(C)C(=O)C(Cl)Cl)cc1OC (configuration not stated)	102
Cc1cc(C)cc(CCCn2c(=O)[nH]c3cc(Cl)cc(Cl)c3c2=O)c1	205 to 208
CCOc1ccc(C2=NN(C3CCCC3)C(=O)[C@H]3CCCC[C@@H]23)cc1OCC (relative stereo)	111 to 114
COC(=O)c1cc(Cl)cc(Cl)n1	75 to 77
COc1ccccc1CP(CCP(Cc1ccccc1OC)c1ccccc1)c1ccccc1 (configuration not stated)	102 to 104
CN1C(=O)C(c2ccccc2)(c2ccncc2)N=C1N (configuration not stated)	154 to 155
O=C1c2ccccc2S(=O)(=O)N1CCCCN1CCC2(CC1)Cc1ccccc1O2	98 to 100
COc1cc(OC)c2c(=O)[nH]c(-c3ccc(N(CCO)CCO)cc3)nc2n1	277 to 279
O=S(=O)(c1ccccc1)c1ncc(Cl)cn1	103
CNS(=O)(=O)c1c(C)n(C)c2cc(F)ccc2c1=O	184
O=C(OC1CCCCC1)c1ncn2c1[C@@H]1CCN1C(=O)c1cc(F)ccc1-2	231 to 232

Compound	melting point [°C]
CCCCOc1c(CNC(=O)OC(C)(C)C)n(CC(C)C)c(=O)c2ccc(-c3nc(C)c(C(=O)O)s3)cc12	107 to 109
O=c1c(Cl)nc2cccnc2n1-c1ccc(Cl)cc1	> 300
C=CCN1C(=O)C(C)(CN2CCN(c3ccccc3OC)CC2)N=C1c1cccnc1 (configuration not stated)	66 to 69
O=C(NC(=O)c1c(Cl)cccc1Cl)Nc1ccc(Cl)c(Cl)c1	232
CC(=O)Nn1c2c(c3ccccc31)Cc1ccccc1-2	> 240
CCC(CC)c1ccc(Cl)c2nc(Nc3ccc(C)cc3Br)n(CCCCO)c12	115 to 118
CCOC(=O)C(C(=O)OCC)c1cc(OC)ccc1[N+](=O)[O-]	92 to 93
CCCc1c(OCc2ccc(C(=O)NC(C)CCCc3cccnc3)cc2)ccc(C(C)=O)c1O (configuration not stated)	117 to 120
COC(=O)c1cc(O)cnc1C1=NC(=O)C(C)(C(C)C)N1 (configuration not stated)	200 to 205
Cc1ccc(N2C(=O)C(O)=C(C(=O)c3ccc(OC(F)(F)F)cc3)C2c2ccc(Cn3nccn3)cc2)nn1 (configuration not stated)	277
CCOC(=O)C(NC(C)=O)(C(=O)OCC)C1=Nc2ccc(Cl)cc2C(c2ccccc2F)=NC1	150 to 180
O=C(O)c1ccccc1-c1ccccc1CN1C(=O)c2ccccc2C1=O	198
CCOC(=O)CCCc1oc(=O)[nH]c1-c1ccc(Cl)s1	95 to 96
O=Cc1cc(I)ccc1O	99 to 101
CC1c2ccccc2-c2ccccc2N1S(=O)(=O)c1ccc(O)cc1 (configuration not stated)	196 to 198
Cc1ccc2c(n1)C(C(N)=O)CCC2 (configuration not stated)	114
Cc1ccc2c(c1)C(=O)N(C)CC(=O)N2	243 to 244
COC(=O)[C@@H]1CSC(=S)N1CC(C)(C)SCc1ccc(OC)cc1	125 to 127
COc1cc(O)c(C(=O)C=Cc2cccnc2)c(OC)c1	158
CC(=O)Nc1cc(N2CCN(C(=O)OC(C)(C)C)CC2)ccc1S(=O)(=O)c1ccccc1	129 to 130
Cc1noc(C)c1COCCn1cnc2c(N)nc3ccccc3c21	213 to 215
COc1ccn2nc(-c3ccccc3F)c(-c3ccc(=O)n(C(C)C)n3)c2c1	174 to 175
CCCNc1nc(C)nc2c1nnn2-c1ccc(C(C)C)cc1Br	156 to 157
C[C@@H](n1cnc2cc(N3CCN(c4ccc([N+](=O)[O-])cc4)CC3)ccc2c1=O)[C@](O)(Cn1cncn1)c1ccc(F)cc1F	287 to 289

Compound	melting point [°C]
Cc1nn(C)c(C)c1NC1=NCCO1	131 to 132
Cc1ccc(CN2CCC(NC(=O)NC(=O)c3ccccc3)CC2)cc1C	239 to 240
COC(=O)C1CC(=NO)c2c(Cl)cc(Cl)cc2N1 (configuration not stated)	216 to 217
N#CCc1cccc2c1CCN=C2c1ccc([N+](=O)[O-])cc1	138 to 139
Cc1[nH]c(=O)n(-c2cc(C(=O)OC(C)C)c(Cl)cc2F)c(=O)c1I	211 to 213
CCCCCCc1cc(C(=O)O)c(C)o1	59 to 60
N#Cc1c(C(F)(F)F)[nH]c2ccc(Br)cc12	188 to 192
COc1ccc2cc(CC(=O)NO)ccc2c1	177 to 180
C=CCOC(=O)c1ccc(S(C)=O)c([N+](=O)[O-])c1 (configuration not stated)	119 to 121
Cc1nc(N2CCN(Cc3cccc(F)c3)C2=O)sc1C(=O)NCc1ccccc1	155 to 156
COc1cc(O)c(C(=O)C=Cc2ccc(OCc3ccccc3)c(OC)c2)c(OC)c1	131
CCc1noc(-c2cn(-c3cccc(OC(C)C)c3)cn2)n1	107
COC(=O)C1=C(C)NC(C)=C(C(=O)NC(C)C)C1c1ccccc1[N+](=O)[O-] (configuration not stated)	203 to 206
NC(=O)Cc1ccc2ccn(C3CCN(CCc4ccc(F)cc4)CC3)c2c1	112 to 113
O=C(C[C@H]1CCCO1)N[C@H]1CC[C@H](CCN2CCC(c3cccc4c3CCO4)CC2)CC1	192
CNC1CCN(c2cc3c(cc2F)c(=O)c(C(=O)O)c2n3C(C)S2)C1 (configuration not stated)	213 to 216
COCc1ncnc(O)c1OC	141 to 143
Cc1c(C=CC#N)cccc1[N+](=O)[O-]	136
Fc1cc(C(F)(F)F)ccc1/C=C/c1nc(COc2ccc(-c3nc(Cn4ccnc4)cs3)cc2)co1	133 to 135
CN(C)C1(c2ccccc2)CCC2(OCCc3c2[nH]c2ccccc32)C(Sc2ccccc2)C1 (configuration not stated)	228 to 233
N#CC=Cc1ccc(C=O)cc1	122
Oc1ccc2c(c1)COc1c-2cc2ccc(O)cc2c1-c1ccc(F)c(F)c1	235 to 237
CN1CCN(Cc2cccc(-c3ccc(-c4cn([C@H]5CN6CCC5CC6)nn4)s3)c2)CC1	155
O=C(CC(=O)C1CC1)Nc1ccc(C(F)(F)F)cc1	131 to 132
